Patent publication US20040166509A1, “Detecting hormonally active compounds” (priority 2002, published 2004)

Legend:
[1] = tested on: hepatic RNA of LMB; experiment: LMB gene array (132 genes): hepatic gene expression after IP injection; type: in vivo, largemouth bass (LMB); conditions: male LMB liver, two-fold cutoff vs control
[2] = tested on: hepatic mRNA of adult male SHMs; experiment: SHM cDNA macroarray (30 genes): hepatic gene expression profiles of exposed fish; type: in vivo, sheepshead minnow (SHM); conditions: adult male SHM liver, aqueous E2 65.14 ng/L 5 d, vs untreated control
[3] = tested on: hepatic mRNA of adult male SHMs; experiment: SHM estrogen responsive macroarray (54 cDNA clones), E2 exposure; type: in vivo, sheepshead minnow (SHM); conditions: adult male SHM liver; aqueous 100 ng/L E2 in TEG, 5 days; vs TEG control
Description: Total hepatic mRNA was extracted from 5 adult male SHMs treated by aqueous exposure to 100 ng/L of E2 dissolved in triethylene glycol (TEG) for 5 days. Minipreps of 54 cDNA clones derived from DD analysis were PCR amplified using primers specific to the M13 sequence of the cloning vector (pGEMT-Easy, Promega, Madison,Wis.). After the PCR reactions the products were purified in spin-columns (Qiagen, Chatsworth, Calif.) and then concentrated in a speed-vac. The cDNA samples were denatured with NaOH, heated to 65° C. for 10 min, and then immediately quenched on ice. 20×SSC (3M NaCl, 0.3M sodium citrate, pH 7.0) that contained 0.01 mM bromophenol blue was then added to the samples to yield a final concentration of 0.3M NaOH, 6×SSC, and 100 ng/μL cDNA template. The samples were then robotically spotted (Biomek 2000, Beckman Coulter, Fullerton, Calif.) in duplicate onto neutral nylon membranes (Fisher Scientific, Pittsburgh, Pa.) using 100 nL pins. The membranes were UV cross-linked and then stored under vacuum at room temperature until hybridized. Various controls, which provided information about the cDNA labeling efficiency, blocking, and non-specific binding of the arrays, were also spotted onto the membranes. These controls included: 3 Arabidopsis thaliana cDNA clones, Cot-1 repetitive sequences, poly A sequence (SpotReport 3, Stratagene, La Jolla, Calif.), and a M13 sequence (vector but no cDNA insert). Labeling of RNA probes and hybridization of blots was performed as described in Example 1.
FIGS. 4A and 4B contain blots of control (TEG-treated) and E2-treated fish, respectively. FIG. 4C is a plot of the mean intensity values. Genes on the macroarray were designated as constitutive genes if their intensity values fell within the range of the highest (1.27) and lowest (0.83) value of the 17 cDNA clones that were used to normalize the data.

[4] = tested on: LMB genes (ER alpha, ER gamma, StAR); design: species or system largemouth bass (LMB); conditions: Table II, test not stated
[5] = EE2 109 ng/L 4 d, DES 100 ng/L 4 d, pNP 11.81 μg/L 5 d, MXC 5.59 μg/L 13 d, ES 590.3 ng/L

Structure (SMILES)	clone 132-2 expression ([1]; 48 h after single IP E2 2.5 mg/kg)	four Vtg genes expression ([1]; 48 h after single IP dose: E2 2.5 mg/kg or 4-NP 50 mg/kg)	ER α expression [2, 5]	Vtg α expression [2, 5]	Vtg β expression [2]	alpha-1-microglobulin/bikunin precursor protein expression [2]	beta actin expression [2]	choriogenin 2 expression [2]	choriogenin 3 expression [2]	coagulation factor XI expression [2]	transferrin expression [2]	choriogenic protein (ZP2) expression [3]	transferrin expression [3]	vitellogenin α expression [3]	vitellogenin β expression [3]	LMB_STAR STAR PROTEIN differentially expressed by [4]
C[C@]12CC[C@@H]3c4ccc(O)cc4CC[C@H]3[C@@H]1CC[C@@H]2O [E2, estradiol]	up-regulated (only genes that exhibit a two-fold or greater change in expression were considered to be differentially regulated)	up-regulated (only genes that exhibit a two-fold or greater change in expression were considered to be differentially regulated)	up-regulated (any cDNA clones in the macroarray experiments above a ˜1.66-fold induction were designated as up-regulated genes)	up-regulated (any cDNA clones in the macroarray experiments above a ˜1.66-fold induction were designated as up-regulated genes)	up-regulated (any cDNA clones in the macroarray experiments above a ˜1.66-fold induction were designated as up-regulated genes)	down-regulated (any cDNA clones that had a value below ˜0.42 were designated as down-regulated)	down-regulated (any cDNA clones that had a value below ˜0.42 were designated as down-regulated)	up-regulated (any cDNA clones in the macroarray experiments above a ˜1.66-fold induction were designated as up-regulated genes)	up-regulated (any cDNA clones in the macroarray experiments above a ˜1.66-fold induction were designated as up-regulated genes)	up-regulated (any cDNA clones in the macroarray experiments above a ˜1.66-fold induction were designated as up-regulated genes)	down-regulated (any cDNA clones that had a value below ˜0.42 were designated as down-regulated)	up-regulated (intensity value above ˜1.27 was designated an E2 up-regulated gene)	down-regulated (a value below ˜0.83 was designated an E2 down-regulated gene)	up-regulated (intensity value above ˜1.27 was designated an E2 up-regulated gene)	up-regulated (intensity value above ˜1.27 was designated an E2 up-regulated gene)	–
CC[C@H](CC[C@@H](C)[C@H]1CC[C@H]2[C@@H]3CC=C4C[C@@H](O)CC[C@]4(C)[C@H]3CC[C@]12C)C(C)C [b-sitosterol]	–	–	–	–	–	–	–	–	–	–	–	–	–	–	–	dn-reg b-
